Measurements from US8076487B2, “Pyridone derivative and herbicide” (Kumiai Chemical Industry Co., Ltd., priority 2006, dated 2011).

What was measured:
Type in all cases: in vivo
[1] = test system: barnyardgrass (Echinochloa crus-galli (L.) P. Beauv. var. crus-galli); assay: Test Example 2: herbicidal effect by soil application to upland field; settings: soil surface spray, upland field soil, 1,000 g active ingredient per hectare, 21st day after application
Experimental: (§1) [table] Test Example 2 Test on Herbicidal Effect by Soil Application to Upland field In a 80 cm2 plastic pot, field soil was filled. Seeds of barnyardgrass (Echinochloa crus-galli (L.) P. Beauv. var. crus-galli), green foxtail (Setaria viridis (L.) P. Beauv.), velvetleaf (Abutilon theophrasti medicus), and slender amaranth (Amaranthus viridis L.) were sown and covered with soils. The wettable powder prepared according to Formulation Example 1 was diluted in water and a 1,000 liter equivalent amount per 1 hectare so that the active ingredient becomes 1,000 g per 1 hectare was uniformly sprayed on a soil surface using a small sprayer. Then, on the 21st day after the application to the plants grew in a greenhouse, the herbicidal effect was examined in accordance with a standard shown in Table 34.

[2] = test system: velvetleaf (Abutilon theophrasti medicus); assay: as above; settings: soil surface spray, upland field soil, 1,000 g active ingredient per hectare, 21st day after application
Experimental: as §1

[3] = test system: green foxtail (Setaria viridis (L.) P. Beauv.); assay: as above; settings: soil surface spray, upland field soil, 1,000 g active ingredient per hectare, 21st day after application
Experimental: as §1

[4] = test system: slender amaranth (Amaranthus viridis L.); assay: as above; settings: soil surface spray, upland field soil, 1,000 g active ingredient per hectare, 21st day after application
Experimental: as §1

[5] = test system: heartshape false pickerelweed (Monochoria vaginalis (Burm.f.) C.Presl); assay: Test Example 1: herbicidal effect by soil application to paddy field; settings: for herbicidal effect, Monochoria vaginalis (Burm. f.) C. Presl: paddy field soil application, active ingredient 1,000 g per 1 hectare, wettable powder added dropwise to water surface the day after sowing, examined on the 21st day after application; for herbicidal effect (index), Monochoria vaginalis (Burm.f.) C.Presl: soil application to paddy field, rated by standard of Table 34
Method in brief: (§2)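 Under greenhouse conditions, seeds sown on puddled paddy soil in 100 cm2 pots under 3 cm of standing water received the test compound; injury was assessed with a standard scoring scheme three weeks (day 21) after treatment.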

[6] = test system: Japanese bulrush (Scirpus juncoides Roxb.); assay: as above; settings: for herbicidal effect, Scirpus juncoides Roxb.: paddy field soil application, active ingredient 1,000 g per 1 hectare, wettable powder added dropwise to water surface the day after sowing, examined on the 21st day after application; for herbicidal effect (index), Scirpus juncoides Roxb.: soil application to paddy field, rated by standard of Table 34
Method in brief: as §2

[7] = test system: early watergrass (Echinochloa oryzicola Vasing); assay: as above; settings: for herbicidal effect, Echinochloa oryzicola Vasing: paddy field soil application, active ingredient 1,000 g per 1 hectare, wettable powder added dropwise to water surface the day after sowing, examined on the 21st day after application; for herbicidal effect (index), Echinochloa oryzicola Vasing: soil application to paddy field, rated by standard of Table 34
Method in brief: as §2

Compound	herbicidal effect (index), Barnyardgrass [1]	herbicidal effect (index), Velvetleaf [2]	herbicidal effect (index), Green Foxtail [3]	herbicidal effect (index), Slender Amaranth [4]	herbicidal effect, Monochoria vaginalis (Burm. f.) C. Presl [5]	herbicidal effect, Scirpus juncoides Roxb. [6]	herbicidal effect, Echinochloa oryzicola Vasing [7]	herbicidal effect (index), Monochoria vaginalis (Burm.f.) C.Presl [5]	herbicidal effect (index), Scirpus juncoides Roxb. [6]	herbicidal effect (index), Echinochloa oryzicola Vasing [7]
CCCS(=O)(=O)Oc1c(C(=O)c2ccc(C(F)(F)F)n(-c3ccc(F)c(F)c3)c2=O)cnn1C [IV-87]	5 (90% or more of herbicidal effect and crop phytotoxicity)	5 (90% or more of herbicidal effect and crop phytotoxicity)	5 (90% or more of herbicidal effect and crop phytotoxicity)	5 (90% or more of herbicidal effect and crop phytotoxicity)	5 (90% or more of herbicidal effect and crop phytotoxicity)	5 (90% or more of herbicidal effect and crop phytotoxicity)	5 (90% or more of herbicidal effect and crop phytotoxicity)			
CCCS(=O)(=O)Oc1c(C(=O)c2ccc(C(F)(F)F)n(-c3ccc(F)c(F)c3)c2=O)c(C)nn1C [IV-88]	5 (90% or more of herbicidal effect and crop phytotoxicity)	5 (90% or more of herbicidal effect and crop phytotoxicity)	5 (90% or more of herbicidal effect and crop phytotoxicity)	5 (90% or more of herbicidal effect and crop phytotoxicity)	5 (90% or more of herbicidal effect and crop phytotoxicity)	4 (70 to less than 90% of herbicidal effect and crop phytotoxicity)	5 (90% or more of herbicidal effect and crop phytotoxicity)			
CC(=O)Oc1c(C(=O)c2ccc(C(F)(F)F)n(-c3cc([N+](=O)[O-])ccc3F)c2=O)cnn1C [IV-89]	5 (90% or more of herbicidal effect and crop phytotoxicity)	5 (90% or more of herbicidal effect and crop phytotoxicity)	4 (70 to less than 90% of herbicidal effect and crop phytotoxicity)	4 (70 to less than 90% of herbicidal effect and crop phytotoxicity)	5 (90% or more of herbicidal effect and crop phytotoxicity)	4 (70 to less than 90% of herbicidal effect and crop phytotoxicity)	4 (70 to less than 90% of herbicidal effect and crop phytotoxicity)			
CCCS(=O)(=O)Oc1c(C(=O)c2ccc(C(F)(F)F)n(-c3ccc(F)c(COC)c3)c2=O)cnn1C [IV-94]	5 (90% or more of herbicidal effect and crop phytotoxicity)	5 (90% or more of herbicidal effect and crop phytotoxicity)	4 (70 to less than 90% of herbicidal effect and crop phytotoxicity)	5 (90% or more of herbicidal effect and crop phytotoxicity)	5 (90% or more of herbicidal effect and crop phytotoxicity)	5 (90% or more of herbicidal effect and crop phytotoxicity)	5 (90% or more of herbicidal effect and crop phytotoxicity)			
Cn1ncc(C(=O)c2ccc(C(F)(F)F)n(CC3CCCO3)c2=O)c1OC(=O)c1ccccc1 (stereo not drawn) [IV-131]	4 (70 to less than 90% of herbicidal effect and crop phytotoxicity)	4 (70 to less than 90% of herbicidal effect and crop phytotoxicity)	3 (50 to less than 70% of herbicidal effect and crop phytotoxicity)	5 (90% or more of herbicidal effect and crop phytotoxicity)	5 (90% or more of herbicidal effect and crop phytotoxicity)	5 (90% or more of herbicidal effect and crop phytotoxicity)	5 (90% or more of herbicidal effect and crop phytotoxicity)			
Cn1ncc(C(=O)c2ccc(C(F)(F)F)n(CC3CCCO3)c2=O)c1OC(=O)c1c(Cl)cc(Cl)cc1Cl (stereo not drawn) [IV-133]	5 (90% or more of herbicidal effect and crop phytotoxicity)	4 (70 to less than 90% of herbicidal effect and crop phytotoxicity)	3 (50 to less than 70% of herbicidal effect and crop phytotoxicity)	5 (90% or more of herbicidal effect and crop phytotoxicity)	5 (90% or more of herbicidal effect and crop phytotoxicity)	5 (90% or more of herbicidal effect and crop phytotoxicity)	5 (90% or more of herbicidal effect and crop phytotoxicity)			
C#CCOc1c(C(=O)c2ccc(C(F)(F)F)n(C)c2=O)cnn1C [IV-189]	5 (90% or more of herbicidal effect and crop phytotoxicity)	4 (70 to less than 90% of herbicidal effect and crop phytotoxicity)	4 (70 to less than 90% of herbicidal effect and crop phytotoxicity)	5 (90% or more of herbicidal effect and crop phytotoxicity)	5 (90% or more of herbicidal effect and crop phytotoxicity)	5 (90% or more of herbicidal effect and crop phytotoxicity)	5 (90% or more of herbicidal effect and crop phytotoxicity)			
CCCS(=O)(=O)Oc1c(C(=O)c2ccc(C(F)(F)F)n(CC3CCCO3)c2=O)cnn1CC (stereo not drawn) [IV-207]	5 (90% or more of herbicidal effect and crop phytotoxicity)	5 (90% or more of herbicidal effect and crop phytotoxicity)	5 (90% or more of herbicidal effect and crop phytotoxicity)	5 (90% or more of herbicidal effect and crop phytotoxicity)	5 (90% or more of herbicidal effect and crop phytotoxicity)	5 (90% or more of herbicidal effect and crop phytotoxicity)	5 (90% or more of herbicidal effect and crop phytotoxicity)			
CCCS(=O)(=O)Oc1c(C(=O)c2ccc(C(F)(F)F)n(-c3ccccc3)c2=O)c(C)nn1C [IV-237]	4 (70 to less than 90% of herbicidal effect and crop phytotoxicity)	4 (70 to less than 90% of herbicidal effect and crop phytotoxicity)	4 (70 to less than 90% of herbicidal effect and crop phytotoxicity)	5 (90% or more of herbicidal effect and crop phytotoxicity)	5 (90% or more of herbicidal effect and crop phytotoxicity)	5 (90% or more of herbicidal effect and crop phytotoxicity)	5 (90% or more of herbicidal effect and crop phytotoxicity)			
CCCn1c(C(F)(F)F)c(C)cc(C(=O)c2cnn(C)c2O)c1=O [IV-241]	4 (70 to less than 90% of herbicidal effect and crop phytotoxicity)	5 (90% or more of herbicidal effect and crop phytotoxicity)	3 (50 to less than 70% of herbicidal effect and crop phytotoxicity)	5 (90% or more of herbicidal effect and crop phytotoxicity)	5 (90% or more of herbicidal effect and crop phytotoxicity)	5 (90% or more of herbicidal effect and crop phytotoxicity)	5 (90% or more of herbicidal effect and crop phytotoxicity)			
CCCn1c(C(F)(F)F)ccc(C(=O)C(C#N)=C(O)C2CC2)c1=O [V-21]	5 (90% or more of herbicidal effect and crop phytotoxicity)	5 (90% or more of herbicidal effect and crop phytotoxicity)	5 (90% or more of herbicidal effect and crop phytotoxicity)	5 (90% or more of herbicidal effect and crop phytotoxicity)				5 (90% or more of herbicidal effect and crop phytotoxicity)	5 (90% or more of herbicidal effect and crop phytotoxicity)	5 (90% or more of herbicidal effect and crop phytotoxicity)
N#CC(C(=O)c1ccc(C(F)(F)F)n(-c2ccccc2)c1=O)=C(O)C1CC1 [V-23]	5 (90% or more of herbicidal effect and crop phytotoxicity)	5 (90% or more of herbicidal effect and crop phytotoxicity)	5 (90% or more of herbicidal effect and crop phytotoxicity)	5 (90% or more of herbicidal effect and crop phytotoxicity)				5 (90% or more of herbicidal effect and crop phytotoxicity)	5 (90% or more of herbicidal effect and crop phytotoxicity)	5 (90% or more of herbicidal effect and crop phytotoxicity)
